The structures appear in SMILES notation. Some results are limits rather than exact numbers.

Common to all, as to format: in vivo
The test system of assay [1] is Atta sexdens. The assay is described as follows: Field Trial 3: Mirex sachets with single pheromone component placed 1 metre from nest entrance on active trails. Conditions: Trial 3, 50 μl component on rubber septum, components tested separately. The method, then: (§1) The insecticide bait Mirex was used in all the trials. In Trials 3 and 4 the bait was presented to the ants in black plastic sachets 8 cm^2 placed inside wire cages, which provided protection from cattle, horses, small manamals and birds. The empty cages were placed in the field 24 hours prior to the start of the experiment. The Mire sachets were prepared and a component of mandibular gland alarm pheromone of the ant species concerned was added to the treatment sachets. In Trial 5 the sachets were not placed in cages but were scattered randomly at the cutting site. Five components or the alarm pheromone were tested. Rubber septa, used to provide a slow-release substrate, were dosed with 50 μl of component and then sealed inside the Mirex sachets. Control sachets were sealed with untreated rubber septa. The sachets were transferred immediately to the field sites. The fate of the sachets was then monitored over a 3 day period.
Trial 3: Sachets were placed 1 metre from the nest entrance hole on active trials of A. sexdens. Five synthetic components of the alarm pheromone were tested, separately; citral, farnesol, 6-methyl-5-hepten-2-one, 4-methyl-3-heptanone and geraniol. […] The results for the five synthetic pheromones were pooled.

In assay [2] the test system is Atta sexdens. The assay is described as follows: Field Trial 5: Mirex sachets with single pheromone component scattered randomly at cutting site. The following applies: Trial 5, 50 μl component; for discovery and opening of sachets: sachets over about 10 m^2 where ants were cutting leaves. The method, then: as §1
Trial 5: Sachets containing, separately, citral (E), 4-methyl-3-heptanone H and 6-methyl-5-hepten-2-one (G) were distributed randomly over an area of about 10 m^2 where ants were actively cutting leaves.

For another assay, the system named is Acromyrmex octospinosus. Description: Research and laboratory trials on behaviour induced by synthetic alarm pheromone components. The following applies: research by the applicant. An excerpt:
Recent research by the applicant on the neotropical leaf-cutting ant Acromyrmex octospinosus has shown that […] components of the alarm pheromone of this ant, namely 3-octanol and 3-octanone, attract nestmates and induce the laying of trails around the source which ensure that nestmates are then attracted towards the source for some time and attack the source on arrival.
It is expected that this surprising effect will be shown by synthetic components of pheromones of other insects, especially social insects.
The synthetic pheromone compounds may therefore be used in food baits in contrast to what would be expected.

Turning to `CC(C)=CCCC(C)=CC=O` [citral], the “fate of test sachets” value with Atta sexdens [1] is “cut open and the contents transported into the nest”. For the same compound, the “discovery and opening of sachets” value with Atta sexdens [2] was “discovered and opened immediately”.

Regarding `CC(C)=CCC/C(C)=C/CO` [geraniol], the “fate of test sachets” value with Atta sexdens [1] is “cut open and the contents transported into the nest”.

On to `CC(=O)CCC=C(C)C` [6-methyl-5-hepten-2-one], for which, in the assay with Atta sexdens [1], the “fate of test sachets” value was “cut open and the contents transported into the nest”. Further, the “discovery and opening of sachets” value in the assay on Atta sexdens [2] was “discovered and opened immediately”. For `CCCC(C)C(=O)CC` (centres unmarked) [4-methyl-3-heptanone], the “fate of test sachets” value in the assay on Atta sexdens [1] is “cut open and the contents transported into the nest”. In the assay on Atta sexdens [2], the “time until all the bait had been transported back to the nest” value was ≤ 30 min; the “discovery and opening of sachets” value was “discovered and opened immediately”. With `CCCCCC(=O)CC` [3-octanone], in the assay with Acromyrmex octospinosus, the “behaviour induced in nestmates by the alarm pheromone component” value is “mainly causes recruitment of ants from the peripheral area”. With `CCCCCC(O)CC` (centres unmarked) [3-octanol], the “behaviour induced in nestmates by the alarm pheromone component” value with Acromyrmex octospinosus was “mainly controls attraction to the source, the laying of pheromone trails radiating out from the source, and biting”. On to `CC(C)=CCCC(C)=CCCC(C)=CCO` [farnesol], for which the “fate of test sachets” value in the assay on Atta sexdens [1] was “cut open and the contents transported into the nest”.

The values are drawn from patent publication US6344208B1, “Pheromone baits for social insects” (priority 1989, dated 2002).
